Measured values taken from US20070166547A1, “Use of a layer consisting of hydrophobic linear, or two-dimensional polycyclic aromatics as a barrier layer or an encapsulation and electric components constructed with a layer of this type and comprising organic polymers” (priority 2003, published 2007).

What was measured:
[1] = system: indicator enzymes in blood plasma; experiment: Morphine abstinence model: indicator enzymes AST, ALT, γ-GTP in blood plasma; format: in vivo, rats Wistar
Method: (§1) The experiments were carried out on rats in series of 7 animals on each compound according to the invention. Non-morphinized animal with not administered with compounds according to the invention were used as a control group. […] Then the rats were decapitated, the blood from somnolent arteries was collected in test tubes with solution EDTA as an anticoagulant, centrifuged at 1500 g for 15 minutes at 4° C.
To estimate possible hepatoprotective action of the compounds according to the invention under conditions of development of an oxidizing stress in the liver cells, effect of these compounds on the most important biochemical blood indexes, in particular, on the content in blood plasma of indicator enzyme of aspartateaminotransferase (AST), alanineaminotransferase (ALT), γ-glutamiletranspeptidase (γ-GTP) was investigated. The content of enzymes was estimated by their catalyzing activity in blood plasma.
The activity of AST, ALT and γ-GTP was determined by means of diagnostic sets DiaSys, Germany.

[2] = system: metabolism of nitrogen oxide; experiment: Morphine abstinence model: nitrites and nitrates NOX− in blood plasma, liver and brain; format: in vivo, rats Wistar
Method: as §1
To estimate the intensity of metabolism of nitrogen oxide in rats, quantitative determination of stable metabolites of nitrogen oxide—nitrites and nitrates NOX^− in the blood plasma, supernatanates of the liver and thymus gland, a study was conducted by a spectrometric method, and in the brain supernatanates by a […] method.
The spectrometric method is based the reaction of nitrites with the Griss reagent (a mixture of 2% solution of sulfanilamide and 0.2% N-(1-naphthyl)ethylene diamine. At the first step the nitrite reacts with sulfanilamide with formation of diazonium salt, and then with the second component to form azo dye with an adsorption maximum at 540 nm. For reduction of nitrates into nitrites, a fermentative method was used with bacterial reductase nitrate (Grisham M. B. et al., 1995). The samples of plasma and supernatant of the liver deproteinizated at 100° C. for 5 minutes incubated for 30 minutes at 37° C. in 50.0 mM of HEPES pH 7.4 in the presence of 0.2 unit/ml of Aspergillus reductase nitrate, 5.0 mkM of FAD and 0.1 mM of NAD-Ph. At the end of the reaction lactate dehydrogenase and pyruvate were added for isolation of NAD-Ph interfering with the Griss reaction. Then the Griss reagent was added and after 10-minute incubation the light absorption of the samples was measured at 540 nm. To amount of NOX^− was calculated using sodium nitrate as a standard.
The fluorometric method is based on calculation of the nitrite level by the intensity fluorescence of 2,3-diaminonaphthotriazole, a product of reaction of 2,3-diaminonaphthalene (DAN) and nitrite in an acidic medium (Misko T. R., Schilling R. J., Salvemini D. et al. “A fluorometric assay for the measurement of nitrite of biological samples”. Anal. Biochem., 1993, v. 214, p. 11-16). The brain supernatants deproteinizated at 100° C. were placed in a nitrite regenerating system containing 0.125 unit/ml of nitrate reductases, 25 mkM NADPh and 25 mkM FAD prepared in a 20-mM Tris-HCl buffer with pH 7.6 and incubated for 30 minutes at 37° C. The lactatedehydrogenase/pyruvate system was used for oxidation of the NADPh. Then 316 mkM of the DAN solution in 0.62 M of hydrochloric acids were added and the mixture was incubated for 10 minutes in darkness.
280 mM of NaOH were added for stabilization of the fluorescence of the formed 2,3-diaminonaphthotriazole. The fluorescence intensity was measured in the spectrofluorimeter Hitachi F-3000 at a wavelength of excitation of 365 nm and an emission of 405 nm. The concentration of NOX^− in the brain was calculated by means of a standard solution of sodium nitrate.

thymus [3] = experiment: Morphine abstinence model: thymus condition; format: in vivo, rats; conditions: compound alone
[4] = system: synthase of nitrogen oxide (NOC); experiment: Morphine abstinence model: activity of synthase of nitrogen oxide (radiometric, [3H]L-citrulline); format: in vivo, rats Wistar
thymus [5] = experiment: Morphine abstinence model: thymus condition; format: in vivo, rats; conditions: morphinized rats then compound
Method: The effect of the compounds according to the invention on the condition of the thymus of the rats was also investigated: a control group, an experimental group of morphinized animals and an experimental group of animals were first morphinized and then injected with the compounds according to the invention. The experiment was carried out similarly to that described above.

[6] = system: adenosine-sensitive receptors of thrombocytes; experiment: ADP-induced aggregation of thrombocytes in vitro (Born method); format: cell-based, rabbit; conditions: 3 min incubation, ADP 10^−5 M
Method: The compounds according to the invention were studied for the effect of aggregation of thrombocytes induced by a preliminary introduction of a solution of an aggregation inductor with a competing introduction of the compounds according to the invention.
The aggregation of thrombocytes was studied by the Born method based on determination of the changes in the optical density of plasma enriched with thrombocytes after its incubation with an aggregation inductor.
Adenozinediphosphoric acid (ADP) was selected as an aggregation inductor, which in fact is an aggregation generator. Use was made of a sample (registration number 885) of the Sigma Diagnostics Company (USA) in final concentration of 10^−5 M.
The experiments were carried out on male rabbits of the “Chinchilla” breed having a mass of 2.7±0.3 kg. 18-24 hours prior to the experiment they were deprived of feed while preserving free access to water.
To obtain plasma enriched with thrombocytes, blood was taken from a cut of a marginal vein of the rabbit ear, the sample was stabilized with 3.8% of sodium citrate solution in a ratio of 9:1 and centrifuged at 200 g (1000 rev/min) for 10 minutes. The top supernatant layer enriched with thrombocytes was transferred by an automatic dropper into a silicone test tube and kept at 37° C. The plasma enriched with thrombocytes contained, on the average, […]. If this content exceeded the specified 3×10^8 blood platelets in 1 liter, this sample was diluted to the necessary concentration with plasma deprived of thrombocytes, which was obtained by centrifuging blood at 650 g during 10 minutes.
The measurements of the optical density of the samples were made on two-channel aggregometer of the “Chronolog” Company (USA). A flask containing 490 mkl of plasma rich with thrombocytes was placed in a device, into which a magnetic agitator covered with Teflon was lowered. The index of maximum amplitude of aggregation (MA) in percent of a fall of the plasma optical density under effect of the aggregation inductor was recorded. The control index MA of plasma was compared with the MA of plasma incubated for 3 minutes with different concentrations of the compounds: from 10^−3 to 10^−7 in vitro experiments or with plasma obtained 15, 30, 60 and 120 minutes after intravenous administration of different doses of the compounds in vivo experiments.
The process of aggregation of thrombocytes was recorded with the help of a computer; on the monitor screen the there were depicted curves reflecting changes of the optical density of the plasma enriched which was taken as a standard 100% compared to the optical density of the non-thrombocyte plasma taken for 0% content of thrombocytes.
Under in vitro conditions a flask was filled with blood plasma enriched with thrombocytes, to which an aggregation inductor ADP was added at a concentration of 10^−5 M, incubated for 3 minutes, and then the compounds according to the invention were introduced directly into the flask. Their action by aggregation of thrombocytes was studied after 3-minute incubation in a wide range of concentrations from 10^−3 to 10^−7 M to minimum concentration of 10^−7 M not inducing no effect of suppressing the aggregation.

[7] = for comparison; cited from earlier work
[8] = compound alone 20.0 mg/kg intramuscularly
[9] = morphinized rats then compound 20.0 mg/kg intramuscularly

SMILES: O=c1[nH][nH]c(=O)c2ncccc12.[Li] [Compound 6, lithium salt of pyrido[2,3-d]-6H-pyridazine-5,8-dione]
- ALT, Ci, mE/l, Control + compound [1, 8]: 114.5 ± 1.13 mE/l
- AST, Ci, mE/l, Control + compound [1, 8]: 176.18 ± 3.26 mE/l
- γ-GTP, Ci, mE/l, Control + compound [1, 8]: 8.27 ± 2.12 mE/l
- ALT, Ci, mE/l, control + Morphine + Compound [1, 9]: 122.44 ± 2.01 mE/l
- AST, Ci, mE/l, control + Morphine + Compound [1, 9]: 198.34 ± 9.32 mE/l
- γ-GTP, Ci, mE/l, control + Morphine + Compound [1, 9]: 12.52 ± 2.02 mE/l
- Nitrites in blood plasma, Control + Compound [2, 8]: 15.83 ± 1.21 mkmol/ml
- Nitrites in brain, Cortex of cerebrum, Control + Compound [2, 8]: 4.59 ± 0.44 nmol/mg of protein
- Nitrites in brain, Hypothalamus, Control + Compound [2, 8]: 6.94 ± 0.67 nmol/mg of protein
- Nitrites in brain, Mesencephalon, Control + Compound [2, 8]: 7.01 ± 0.82 nmol/mg of protein
- Nitrites in liver, Control + Compound [2, 8]: 0.245 ± 0.010 nmol/mg of protein
- Nitrites in blood plasma, Control + Morphine + compound [2, 9]: 15.86 ± 1.20 mkmol/ml
- Nitrites in brain, Cortex of cerebrum, Control + Morphine + compound [2, 9]: 5.12 ± 0.18 nmol/mg of protein
- Nitrites in brain, Hypothalamus, Control + Morphine + compound [2, 9]: 6.72 ± 0.94 nmol/mg of protein
- Nitrites in brain, Mesencephalon, Control + Morphine + compound [2, 9]: 5.76 ± 0.94 nmol/mg of protein
- Nitrites in liver, Control + Morphine + compound [2, 9]: 0.294 ± 0.02 nmol/mg of protein
- Nitrites, thymus Supernatant, Administration of compounds (thymus [3]): 0.424 ± 0.04 nmol/mg of protein
- Thymus mass, Administration of compounds (thymus [3]): 242 ± 17 mg
- Activity of NOC, Hypothalamus, Control + Compound [4, 8]: 5.93 ± 0.27 pmol/min/mg of protein
- Activity of NOC, Mesencephalon, Control + Compound [4, 8]: 2.84 ± 0.31 pmol/min/mg of protein
- Activity of NOC, Hypothalamus, Control + Morphine + compound [4, 9]: 5.24 ± 0.24 pmol/min/mg of protein
- Activity of NOC, Mesencephalon, Control + Morphine + compound [4, 9]: 1.99 ± 0.31 pmol/min/mg of protein
- Nitrites, thymus Supernatant, Administration of morphine and compound (thymus [5]): 0.419 ± 0.02 nmol/mg of protein
- Thymus mass, Administration of morphine and compound (thymus [5]): 207 ± 14 mg
- MA - fall of optical density of plasma, % to the standard ([6]; 10^−3 M): 50.0 ± 1.9 %
- MA - fall of optical density of plasma, % to the standard ([6]; 10^−4 M): 53.3 ± 2.2 %
- MA - fall of optical density of plasma, % to the standard ([6]; 10^−5 M): 47.4 ± 2.0 %
- MA - drop of optical density, % compared to control ([6]; 10^−6 M): 51.2 ± 3.2%
- MA - drop of optical density, % compared to control ([6]; 10^−7 M): 50.7 ± 3.2%

SMILES: Cc1cc2nc3c(=O)[nH]c(=O)nc-3n(C[C@H](O)[C@H](O)[C@H](O)COP(=O)(O)OP(=O)(O)OC[C@H]3O[C@@H](n4cnc5c(N)ncnc54)[C@H](O)[C@@H]3O)c2cc1C [FAD^+]
- E1/2 of electrochemical reduction of coenzyme [7]: −0.05 V

SMILES: NC(=O)c1ccc[n+]([C@@H]2O[C@H](COP(=O)([O-])OP(=O)(O)OC[C@H]3O[C@@H](n4cnc5c(N)ncnc54)[C@H](O)[C@@H]3O)[C@@H](O)[C@H]2O)c1 [NAD^+]
- E1/2 of electrochemical reduction of coenzyme [7]: −0.32 V
